Reference: the NIST ThermoML archive (doi:10.1021/je060353z)

Legend:
[1] = xn = mol fraction of the nth substance listed; settings: 101 kPa, Liquid
[2] = 101 kPa, Liquid

CCCCCCCO [heptan-1-ol] + Clc1ccccc1
[1], x2 = 0
Settings	mass density [kg/m3]	speed of sound [m/s]	viscosity [mPa·s]
298.15 K	818.732	1327.3	5.944
303.15 K	815.287	1313.6	5.069
308.15 K	811.737	1293.9	4.333
313.15 K	808.162	1277.2	3.726

CCCCCCO [hexan-1-ol]
[2]
Settings	mass density [kg/m3]	speed of sound [m/s]	viscosity [mPa·s]
298.15 K	815.23	1304.7	4.594
303.15 K	812.118	1287.9	3.887
308.15 K	808.482	1271.1	3.359
313.15 K	804.811	1254.5	2.914

CCCCCCO [hexan-1-ol] + Clc1ccccc1
[1], x2 = 0
Settings	mass density [kg/m3]	speed of sound [m/s]	viscosity [mPa·s]
298.15 K	815.23	1304.7	4.594
303.15 K	812.118	1287.9	3.887
308.15 K	808.482	1271.1	3.359
313.15 K	804.811	1254.5	2.914

CCCCCCCCCO [nonan-1-ol]
[2]
Settings	mass density [kg/m3]	speed of sound [m/s]	viscosity [mPa·s]
298.15 K	824.478	1365.5	9.715
303.15 K	821.044	1353.6	7.927
308.15 K	817.582	1331.8	6.664
313.15 K	814.098	1315	5.645

CCCCCCCCCO [nonan-1-ol] + Clc1ccccc1
[1]
Settings	mass density [kg/m3]	speed of sound [m/s]	viscosity [mPa·s]
298.15 K, x2 = 0	824.478	1365.5	9.715
298.15 K, x2 = 0.1529	850.648	1350.5	6.576
298.15 K, x2 = 0.3008	879.504	1333.3	4.488
298.15 K, x2 = 0.4379	910.112	1316.2	3.135
298.15 K, x2 = 0.5505	938.617	1302.2	2.329
298.15 K, x2 = 0.6413	964.273	1291.1	1.828
298.15 K, x2 = 0.7273	991.186	1281.2	1.455
298.15 K, x2 = 0.8031	1017.42	1274	1.192
298.15 K, x2 = 0.8744	1044.71	1269	0.999
298.15 K, x2 = 0.937	1071.14	1267.1	0.864
303.15 K, x2 = 0	821.044	1353.6	7.927
303.15 K, x2 = 0.1529	846.995	1332.6	5.56
303.15 K, x2 = 0.3008	875.625	1315.8	3.876
303.15 K, x2 = 0.4379	906.014	1299.5	2.752
303.15 K, x2 = 0.5505	934.309	1286	2.07
303.15 K, x2 = 0.6413	959.757	1275.1	1.646
303.15 K, x2 = 0.7273	986.433	1265.4	1.325
303.15 K, x2 = 0.8031	1012.44	1257.7	1.097
303.15 K, x2 = 0.8744	1039.48	1252	0.924
303.15 K, x2 = 0.937	1065.72	1249.1	0.802
308.15 K, x2 = 0	817.582	1331.8	6.664
308.15 K, x2 = 0.1529	843.265	1315.5	4.745
308.15 K, x2 = 0.3008	871.65	1298.5	3.365
308.15 K, x2 = 0.4379	901.759	1281.7	2.433
308.15 K, x2 = 0.5505	929.764	1267.7	1.858
308.15 K, x2 = 0.6413	954.969	1256.3	1.493
308.15 K, x2 = 0.7273	981.393	1246.3	1.205
308.15 K, x2 = 0.8031	1007.14	1238.5	1.014
308.15 K, x2 = 0.8744	1033.95	1233	0.869
308.15 K, x2 = 0.937	1059.96	1231.5	0.764
313.15 K, x2 = 0	814.098	1315	5.645
313.15 K, x2 = 0.1529	839.584	1299.4	4.074
313.15 K, x2 = 0.3008	867.761	1282	2.935
313.15 K, x2 = 0.4379	897.663	1264.9	2.152
313.15 K, x2 = 0.5505	925.493	1251	1.658
313.15 K, x2 = 0.6413	950.508	1239.8	1.346
313.15 K, x2 = 0.7273	976.738	1229.8	1.094
313.15 K, x2 = 0.8031	1002.28	1221.8	0.919
313.15 K, x2 = 0.8744	1028.88	1215.6	0.775
313.15 K, x2 = 0.937	1054.7	1213.3	0.676

CCCCCCCCO [octan-1-ol] + Clc1ccccc1
[1], x2 = 0
Settings	mass density [kg/m3]	speed of sound [m/s]	viscosity [mPa·s]
298.15 K	821.826	1347.8	7.661
303.15 K	818.23	1338	6.402
308.15 K	814.737	1314.3	5.425
313.15 K	810.098	1297.6	4.628
